Tested on: 415267-285-R-J2-PDC complex spheroid viability
Assay: Anticancer human tumor 415267-285-R-J2-PDC patient-derived breast carcinoma cell line growth inhibition [POLQ]
Conditions: for IC50: curve of first compound; for viability, T/C: stronger effect = lower value
In short: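 Patient-derived tumour cells were co-cultured with HUVEC and mesenchymal stem cells as multicellular spheroids at 37 °C. They were treated with POLQ inhibitors (novobiocin, ART-558, RP6685) alone or combined with other agents. Top concentrations were at or near clinical Cmax (otherwise 10 microM; SN-38 at 1 microM), decreasing in half-log steps.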

[1] = second compound 0.0316 µM, first compound 0.0316 µM
[2] = second compound 0.0316 µM, first compound 0.1 µM
[3] = second compound 0.0316 µM, first compound 0.316 µM
[4] = second compound 0.0316 µM, first compound 1 µM
[5] = second compound 0.0316 µM, first compound 3.16 µM
[6] = second compound 0.0316 µM, first compound 10 µM
[7] = second compound 0.1 µM, first compound 0.0316 µM
[8] = second compound 0.1 µM, first compound 0.1 µM
[9] = second compound 0.1 µM, first compound 0.316 µM
[10] = second compound 0.1 µM, first compound 1 µM
[11] = second compound 0.1 µM, first compound 3.16 µM
[12] = second compound 0.1 µM, first compound 10 µM
[13] = second compound 0.316 µM, first compound 0.0316 µM
[14] = second compound 0.316 µM, first compound 0.1 µM
[15] = second compound 0.316 µM, first compound 0.316 µM
[16] = second compound 0.316 µM, first compound 1 µM
[17] = second compound 0.316 µM, first compound 3.16 µM
[18] = second compound 0.316 µM, first compound 10 µM
[19] = second compound 1 µM, first compound 0.0316 µM
[20] = second compound 1 µM, first compound 0.1 µM
[21] = second compound 1 µM, first compound 0.316 µM
[22] = second compound 1 µM, first compound 1 µM
[23] = second compound 1 µM, first compound 3.16 µM
[24] = second compound 1 µM, first compound 10 µM
[25] = second compound 3.16 µM, first compound 0.0316 µM
[26] = second compound 3.16 µM, first compound 0.1 µM
[27] = second compound 3.16 µM, first compound 0.316 µM
[28] = second compound 3.16 µM, first compound 1 µM
[29] = second compound 3.16 µM, first compound 3.16 µM
[30] = second compound 3.16 µM, first compound 10 µM
[31] = second compound 10 µM, first compound 0.0316 µM
[32] = second compound 10 µM, first compound 0.1 µM
[33] = second compound 10 µM, first compound 0.316 µM
[34] = second compound 10 µM, first compound 1 µM
[35] = second compound 10 µM, first compound 3.16 µM
[36] = second compound 10 µM, first compound 10 µM
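Further: spheroids exposed to compounds for one week before readout.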
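Wherever viability, T/C is given: luminescence used as stand-in measure of viable cells; 100% = DMSO vehicle control viability.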

## CC1COCCN1c1cc(-c2ccnn2C)c2ccnc(-c3ccn[nH]3)c2n1 (stereo not drawn) + Nc1ccc(C#CCN(C(=O)Cc2ncc(C(F)(F)F)cc2C(F)(F)F)c2ccc(F)cc2)nn1
Second compound 0.0316 µM
  IC50: 42.7 nM
Second compound 0.1 µM
  IC50: 40.2 nM
Second compound 0.316 µM
  IC50: 40 nM
Second compound 1 µM
  IC50: 36.9 nM
Second compound 3.16 µM
  IC50: 32.6 nM
Second compound 10 µM
  IC50: < 31.6 nM
[1]
  viability, T/C: 63.7%
[2]
  viability, T/C: 11.2%
[3]
  viability, T/C: 5.02%
[4]
  viability, T/C: 3.87%
[5]
  viability, T/C: 4.17%
[6]
  viability, T/C: 3.9%
[7]
  viability, T/C: 60.3%
[8]
  viability, T/C: 10.8%
[9]
  viability, T/C: 4.23%
[10]
  viability, T/C: 3.18%
[11]
  viability, T/C: 4.26%
[12]
  viability, T/C: 3.58%
[13]
  viability, T/C: 60%
[14]
  viability, T/C: 11.4%
[15]
  viability, T/C: 4.5%
[16]
  viability, T/C: 3.99%
[17]
  viability, T/C: 3.82%
[18]
  viability, T/C: 4%
[19]
  viability, T/C: 56.4%
[20]
  viability, T/C: 8.91%
[21]
  viability, T/C: 4.69%
[22]
  viability, T/C: 3.73%
[23]
  viability, T/C: 3.7%
[24]
  viability, T/C: 3.28%
[25]
  viability, T/C: 51.2%
[26]
  viability, T/C: 9.4%
[27]
  viability, T/C: 5.57%
[28]
  viability, T/C: 3.36%
[29]
  viability, T/C: 3.4%
[30]
  viability, T/C: 4.22%
[31]
  viability, T/C: 42.1%
[32]
  viability, T/C: 10.7%
[33]
  viability, T/C: 5.92%
[34]
  viability, T/C: 3.97%
[35]
  viability, T/C: 3.84%
[36]
  viability, T/C: 4.9%

## CC1COCCN1c1cc(C2(S(C)(=N)=O)CC2)nc(-c2ccnc3[nH]ccc23)n1 (stereo not drawn) + Nc1ccc(C#CCN(C(=O)Cc2ncc(C(F)(F)F)cc2C(F)(F)F)c2ccc(F)cc2)nn1
Second compound 0.0316 µM
  IC50: 541 nM
Second compound 0.1 µM
  IC50: 514 nM
Second compound 0.316 µM
  IC50: 592 nM
Second compound 1 µM
  IC50: 537 nM
Second compound 3.16 µM
  IC50: 559 nM
Second compound 10 µM
  IC50: 527 nM
[1]
  viability, T/C: 106%
[2]
  viability, T/C: 113%
[3]
  viability, T/C: 81.3%
[4]
  viability, T/C: 14.2%
[5]
  viability, T/C: 5.34%
[6]
  viability, T/C: 3.83%
[7]
  viability, T/C: 94.3%
[8]
  viability, T/C: 108%
[9]
  viability, T/C: 75%
[10]
  viability, T/C: 15.4%
[11]
  viability, T/C: 5.4%
[12]
  viability, T/C: 3.91%
[13]
  viability, T/C: 104%
[14]
  viability, T/C: 101%
[15]
  viability, T/C: 92.6%
[16]
  viability, T/C: 14.3%
[17]
  viability, T/C: 5.2%
[18]
  viability, T/C: 3.58%
[19]
  viability, T/C: 104%
[20]
  viability, T/C: 95%
[21]
  viability, T/C: 81.9%
[22]
  viability, T/C: 12.5%
[23]
  viability, T/C: 6.5%
[24]
  viability, T/C: 2.93%
[25]
  viability, T/C: 102%
[26]
  viability, T/C: 104%
[27]
  viability, T/C: 87.3%
[28]
  viability, T/C: 12%
[29]
  viability, T/C: 5.15%
[30]
  viability, T/C: 4.26%
[31]
  viability, T/C: 111%
[32]
  viability, T/C: 91.2%
[33]
  viability, T/C: 80.8%
[34]
  viability, T/C: 11.4%
[35]
  viability, T/C: 5.02%
[36]
  viability, T/C: 4.34%

## CCCS(=O)(=O)Nc1ccc(F)c(C(=O)c2c[nH]c3ncc(-c4ccc(Cl)cc4)cc23)c1F + Nc1ccc(C#CCN(C(=O)Cc2ncc(C(F)(F)F)cc2C(F)(F)F)c2ccc(F)cc2)nn1
Second compound 0.0316 µM
  IC50: > 10000 nM
Second compound 0.1 µM
  IC50: > 10000 nM
Second compound 0.316 µM
  IC50: > 10000 nM
Second compound 1 µM
  IC50: > 10000 nM
Second compound 3.16 µM
  IC50: > 10000 nM
Second compound 10 µM
  IC50: > 10000 nM
[1]
  viability, T/C: 92%
[2]
  viability, T/C: 111%
[3]
  viability, T/C: 102%
[4]
  viability, T/C: 90.8%
[5]
  viability, T/C: 90.6%
[6]
  viability, T/C: 89.6%
[7]
  viability, T/C: 117%
[8]
  viability, T/C: 105%
[9]
  viability, T/C: 91.1%
[10]
  viability, T/C: 107%
[11]
  viability, T/C: 109%
[12]
  viability, T/C: 90.3%
[13]
  viability, T/C: 114%
[14]
  viability, T/C: 109%
[15]
  viability, T/C: 108%
[16]
  viability, T/C: 95.2%
[17]
  viability, T/C: 96.2%
[18]
  viability, T/C: 89.2%
[19]
  viability, T/C: 110%
[20]
  viability, T/C: 107%
[21]
  viability, T/C: 105%
[22]
  viability, T/C: 100%
[23]
  viability, T/C: 105%
[24]
  viability, T/C: 82.3%
[25]
  viability, T/C: 107%
[26]
  viability, T/C: 112%
[27]
  viability, T/C: 107%
[28]
  viability, T/C: 104%
[29]
  viability, T/C: 94.2%
[30]
  viability, T/C: 92.9%
[31]
  viability, T/C: 95.5%
[32]
  viability, T/C: 105%
[33]
  viability, T/C: 104%
[34]
  viability, T/C: 98.4%
[35]
  viability, T/C: 104%
[36]
  viability, T/C: 90.8%

## Cn1ncnc1[C@H]1c2n[nH]c(=O)c3cc(F)cc(c23)N[C@@H]1c1ccc(F)cc1 + Nc1ccc(C#CCN(C(=O)Cc2ncc(C(F)(F)F)cc2C(F)(F)F)c2ccc(F)cc2)nn1
Second compound 0.0316 µM
  IC50: > 100 nM
Second compound 0.1 µM
  IC50: > 100 nM
Second compound 0.316 µM
  IC50: > 100 nM
Second compound 1 µM
  IC50: > 100 nM
Second compound 3.16 µM
  IC50: > 100 nM
Second compound 10 µM
  IC50: > 100 nM
Second compound 0.0316 µM, first compound 0.000316 µM
  viability, T/C: 101%
Second compound 0.0316 µM, first compound 0.001 µM
  viability, T/C: 97.2%
Second compound 0.0316 µM, first compound 0.00316 µM
  viability, T/C: 101%
Second compound 0.0316 µM, first compound 0.01 µM
  viability, T/C: 93.7%
[1]
  viability, T/C: 95.8%
[2]
  viability, T/C: 97.8%
Second compound 0.1 µM, first compound 0.000316 µM
  viability, T/C: 96.7%
Second compound 0.1 µM, first compound 0.001 µM
  viability, T/C: 109%
Second compound 0.1 µM, first compound 0.00316 µM
  viability, T/C: 86.9%
Second compound 0.1 µM, first compound 0.01 µM
  viability, T/C: 92.6%
[7]
  viability, T/C: 99.8%
[8]
  viability, T/C: 94.8%
Second compound 0.316 µM, first compound 0.000316 µM
  viability, T/C: 88.7%
Second compound 0.316 µM, first compound 0.001 µM
  viability, T/C: 102%
Second compound 0.316 µM, first compound 0.00316 µM
  viability, T/C: 88.2%
Second compound 0.316 µM, first compound 0.01 µM
  viability, T/C: 99.6%
[13]
  viability, T/C: 95.5%
[14]
  viability, T/C: 110%
Second compound 1 µM, first compound 0.000316 µM
  viability, T/C: 98.9%
Second compound 1 µM, first compound 0.001 µM
  viability, T/C: 101%
Second compound 1 µM, first compound 0.00316 µM
  viability, T/C: 109%
Second compound 1 µM, first compound 0.01 µM
  viability, T/C: 99.5%
[19]
  viability, T/C: 105%
[20]
  viability, T/C: 120%
Second compound 3.16 µM, first compound 0.000316 µM
  viability, T/C: 97.8%
Second compound 3.16 µM, first compound 0.001 µM
  viability, T/C: 113%
Second compound 3.16 µM, first compound 0.00316 µM
  viability, T/C: 114%
Second compound 3.16 µM, first compound 0.01 µM
  viability, T/C: 91.6%
[25]
  viability, T/C: 101%
[26]
  viability, T/C: 108%
Second compound 10 µM, first compound 0.000316 µM
  viability, T/C: 89.8%
Second compound 10 µM, first compound 0.001 µM
  viability, T/C: 105%
Second compound 10 µM, first compound 0.00316 µM
  viability, T/C: 108%
Second compound 10 µM, first compound 0.01 µM
  viability, T/C: 94.2%
[31]
  viability, T/C: 101%
[32]
  viability, T/C: 105%
